ChEMBL document CHEMBL3400118, “New approaches to the synthesis of sildenafil analogues and their enzyme inhibitory activity” (Bioorg Med Chem, 2015)

Key:
MCF7 = experiment: Cytotoxicity against human MCF7 cells after 72 hrs using Calcein AM by fluorescence assay; type: functional, cell-based; details: MCF7, 72 h
[1] = molecular target: Cyclin-dependent kinase 2/cyclin E1 (Homo sapiens, UniProt P24941); experiment: Inhibition of CDK2/Cyclin E (unknown origin) using histone H1 as substrate by [gamma-33P]ATP assay; type: protein-complex assay
[2] = molecular target: Tyrosine-protein kinase ABL1 (Homo sapiens, UniProt P00519); experiment: Inhibition of Abl (unknown origin) using GGEAIYAAPFKK peptide as substrate by [gamma-33P]ATP assay
Tyrosine-protein kinase ABL1, sequence (P00519 whole entry): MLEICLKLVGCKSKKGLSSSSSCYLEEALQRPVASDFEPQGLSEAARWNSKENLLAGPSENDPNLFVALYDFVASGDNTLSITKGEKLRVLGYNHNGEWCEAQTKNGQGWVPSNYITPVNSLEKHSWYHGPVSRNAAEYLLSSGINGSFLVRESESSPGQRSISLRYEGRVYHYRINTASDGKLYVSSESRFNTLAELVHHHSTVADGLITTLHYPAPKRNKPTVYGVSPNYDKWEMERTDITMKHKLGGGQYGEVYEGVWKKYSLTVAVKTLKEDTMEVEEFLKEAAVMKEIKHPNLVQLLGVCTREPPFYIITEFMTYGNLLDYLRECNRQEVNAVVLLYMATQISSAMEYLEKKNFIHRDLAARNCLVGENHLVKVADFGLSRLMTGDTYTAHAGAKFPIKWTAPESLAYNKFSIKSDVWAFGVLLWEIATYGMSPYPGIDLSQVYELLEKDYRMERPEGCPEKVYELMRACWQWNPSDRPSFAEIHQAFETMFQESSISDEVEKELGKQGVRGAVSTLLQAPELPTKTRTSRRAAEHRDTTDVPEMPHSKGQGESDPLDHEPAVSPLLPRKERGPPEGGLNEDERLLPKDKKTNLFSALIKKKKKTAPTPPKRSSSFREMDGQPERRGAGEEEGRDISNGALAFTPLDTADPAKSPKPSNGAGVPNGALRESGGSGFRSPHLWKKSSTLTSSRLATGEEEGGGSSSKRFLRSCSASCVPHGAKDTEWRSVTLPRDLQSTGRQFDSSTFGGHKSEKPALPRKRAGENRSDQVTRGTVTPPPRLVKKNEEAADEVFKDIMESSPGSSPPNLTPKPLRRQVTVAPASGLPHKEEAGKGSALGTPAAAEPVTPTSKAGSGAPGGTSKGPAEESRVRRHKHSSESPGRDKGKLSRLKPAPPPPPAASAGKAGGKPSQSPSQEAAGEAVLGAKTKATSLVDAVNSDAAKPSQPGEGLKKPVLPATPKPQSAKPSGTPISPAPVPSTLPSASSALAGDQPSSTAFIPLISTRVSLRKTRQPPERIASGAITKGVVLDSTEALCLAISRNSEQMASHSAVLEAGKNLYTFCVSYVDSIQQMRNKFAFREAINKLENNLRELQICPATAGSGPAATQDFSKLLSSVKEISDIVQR

Carbonic anhydrase 2 = Carbonic anhydrase 2 (Homo sapiens, UniProt P00918); experiment: Inhibition of human carbonic anhydrase 2 preincubated for 15 mins by CO2 hydration assay
Carbonic anhydrase 9 = Carbonic anhydrase 9 (Homo sapiens, UniProt Q16790); experiment: Inhibition of human carbonic anhydrase 9 preincubated for 15 mins by CO2 hydration assay
Carbonic anhydrase 12 = Carbonic anhydrase 12 (Homo sapiens, UniProt O43570); experiment: Inhibition of human carbonic anhydrase 12 preincubated for 15 mins by CO2 hydration assay
Carbonic anhydrase 12, sequence (O43570 whole entry): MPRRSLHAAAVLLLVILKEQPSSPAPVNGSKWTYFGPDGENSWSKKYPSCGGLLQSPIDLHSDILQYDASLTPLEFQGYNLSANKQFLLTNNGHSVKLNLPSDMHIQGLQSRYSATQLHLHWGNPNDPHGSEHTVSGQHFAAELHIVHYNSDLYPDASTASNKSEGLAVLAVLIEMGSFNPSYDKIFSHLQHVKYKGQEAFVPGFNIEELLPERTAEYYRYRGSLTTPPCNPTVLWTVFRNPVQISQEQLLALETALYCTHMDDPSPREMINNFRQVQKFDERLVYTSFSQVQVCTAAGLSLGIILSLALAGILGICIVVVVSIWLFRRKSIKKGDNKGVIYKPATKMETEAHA

Carbonic anhydrase 1 = Carbonic anhydrase 1 (Homo sapiens, UniProt P00915); experiment: Inhibition of human carbonic anhydrase 1 preincubated for 15 mins by CO2 hydration assay
Carbonic anhydrase 1, sequence (P00915 whole entry): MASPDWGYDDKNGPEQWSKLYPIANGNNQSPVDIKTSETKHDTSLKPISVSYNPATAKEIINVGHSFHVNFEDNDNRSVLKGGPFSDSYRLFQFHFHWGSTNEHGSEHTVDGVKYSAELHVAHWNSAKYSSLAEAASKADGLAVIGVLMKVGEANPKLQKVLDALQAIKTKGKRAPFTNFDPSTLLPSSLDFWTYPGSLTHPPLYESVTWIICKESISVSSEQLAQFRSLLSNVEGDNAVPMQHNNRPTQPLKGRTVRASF

K562 = experiment: Cytotoxicity against human K562 cells after 72 hrs using Calcein AM by fluorescence assay; type: functional, cell-based; details: K562, 72 h

Cc1ccc(NC(=O)c2ccc(CN3CCN(C)CC3)cc2)cc1Nc1nccc(-c2cccnc2)n1 [IMATINIB]
IC50 (MCF7): > 10 µM

CCOc1ccc(S(=O)(=O)NC(C)(C)CO)cc1-c1nnc2c(n1)c(C)nn2C
IC50 [1]: > 100 µM
IC50 [2]: > 100 µM
Ki (Carbonic anhydrase 2): > 10 µM
Ki (Carbonic anhydrase 9): 0.0313 µM
Ki (Carbonic anhydrase 12): 0.608 µM
Ki (Carbonic anhydrase 1): > 10 µM
IC50 (MCF7): > 100 µM
IC50 (K562): > 100 µM

CCOc1ccc(S(=O)(=O)N2CCOCC2)cc1-c1nnc2c(n1)c(C)nn2C
IC50 [1]: > 50 µM
IC50 [2]: > 50 µM
Ki (Carbonic anhydrase 2): > 10 µM
Ki (Carbonic anhydrase 9): 0.0244 µM
Ki (Carbonic anhydrase 12): 0.0302 µM
Ki (Carbonic anhydrase 1): > 10 µM
IC50 (MCF7): > 25 µM
IC50 (K562): > 25 µM

CCOc1ccc(S(=O)(=O)N2CCCNCC2)cc1-c1nnc2c(n1)c(C)nn2C
IC50 [1]: 44.3 µM
IC50 [2]: 5.9 µM
Ki (Carbonic anhydrase 2): > 10 µM
Ki (Carbonic anhydrase 9): 0.0309 µM
Ki (Carbonic anhydrase 12): 0.667 µM
Ki (Carbonic anhydrase 1): > 10 µM
IC50 (MCF7): > 25 µM
IC50 (K562): > 25 µM

CCOc1ccc(S(=O)(=O)N(CC)CC)cc1-c1nnc2c(n1)c(C)nn2C
IC50 [1]: > 50 µM
IC50 [2]: > 50 µM
Ki (Carbonic anhydrase 2): > 10 µM
Ki (Carbonic anhydrase 9): 0.0424 µM
Ki (Carbonic anhydrase 12): 0.281 µM
Ki (Carbonic anhydrase 1): > 10 µM
IC50 (MCF7): > 25 µM
IC50 (K562): > 25 µM

CCCc1nn(C)c2nnc(-c3cc(S(=O)(=O)N4CCNCC4)ccc3OCC)nc12
Ki (Carbonic anhydrase 2): > 10 µM
Ki (Carbonic anhydrase 9): 0.0387 µM
Ki (Carbonic anhydrase 12): 0.0038 µM
Ki (Carbonic anhydrase 1): > 10 µM

CCOc1ccc(S(=O)(=O)NC(C)(CO)CO)cc1-c1nnc2c(n1)c(C)nn2C
IC50 [1]: > 100 µM
IC50 [2]: > 100 µM
Ki (Carbonic anhydrase 2): > 10 µM
Ki (Carbonic anhydrase 9): 0.0326 µM
Ki (Carbonic anhydrase 12): 0.0409 µM
Ki (Carbonic anhydrase 1): > 10 µM
IC50 (MCF7): > 100 µM
IC50 (K562): > 100 µM

CCCc1nn(C)c2nnc(-c3cc(S(=O)(=O)N4CCN(C)CC4)ccc3OCC)nc12
IC50 [1]: > 25 µM
IC50 [2]: > 50 µM
Ki (Carbonic anhydrase 2): > 10 µM
Ki (Carbonic anhydrase 9): 0.0154 µM
Ki (Carbonic anhydrase 12): 0.629 µM
Ki (Carbonic anhydrase 1): > 10 µM
IC50 (MCF7): > 25 µM
IC50 (K562): > 25 µM

CCOc1ccc(S(=O)(=O)N2CCNCC2)cc1-c1nnc2c(n1)c(C)nn2C
IC50 [1]: > 50 µM
IC50 [2]: > 50 µM
Ki (Carbonic anhydrase 2): > 10 µM
Ki (Carbonic anhydrase 9): 0.0401 µM
Ki (Carbonic anhydrase 12): 0.616 µM
Ki (Carbonic anhydrase 1): > 10 µM
IC50 (MCF7): > 25 µM
IC50 (K562): > 25 µM

CCOc1ccc(S(=O)(=O)N2CCCC2)cc1-c1nnc2c(n1)c(C)nn2C
IC50 [1]: > 50 µM
IC50 [2]: > 50 µM
Ki (Carbonic anhydrase 2): > 10 µM
Ki (Carbonic anhydrase 9): 0.0403 µM
Ki (Carbonic anhydrase 12): 0.606 µM
Ki (Carbonic anhydrase 1): > 10 µM
IC50 (MCF7): > 25 µM
IC50 (K562): > 25 µM

CCOc1ccc(S(=O)(=O)NCCN2CCOCC2)cc1-c1nnc2c(n1)c(C)nn2C
IC50 [1]: > 50 µM
IC50 [2]: > 50 µM
Ki (Carbonic anhydrase 2): > 10 µM
Ki (Carbonic anhydrase 9): 0.0398 µM
Ki (Carbonic anhydrase 12): 0.0595 µM
Ki (Carbonic anhydrase 1): > 10 µM
IC50 (MCF7): > 25 µM
IC50 (K562): > 25 µM

CCOc1ccc(S(=O)(=O)N2CCN(C)CC2)cc1-c1nnc2c(n1)c(C)nn2C
IC50 [1]: > 50 µM
IC50 [2]: > 50 µM
Ki (Carbonic anhydrase 2): > 10 µM
Ki (Carbonic anhydrase 9): 0.0377 µM
Ki (Carbonic anhydrase 12): 0.636 µM
Ki (Carbonic anhydrase 1): > 10 µM
IC50 (MCF7): > 25 µM
IC50 (K562): > 25 µM

CCOc1ccc(S(=O)(=O)NCCN)cc1-c1nnc2c(n1)c(C)nn2C
IC50 [1]: > 50 µM
IC50 [2]: > 50 µM
Ki (Carbonic anhydrase 2): > 10 µM
Ki (Carbonic anhydrase 9): 0.0334 µM
Ki (Carbonic anhydrase 12): 0.0573 µM
Ki (Carbonic anhydrase 1): > 10 µM
IC50 (MCF7): > 25 µM
IC50 (K562): > 25 µM

CCOc1ccc(S(N)(=O)=O)cc1-c1nnc2c(n1)c(C)nn2C
Ki (Carbonic anhydrase 2): 0.422 µM
Ki (Carbonic anhydrase 9): 0.0316 µM
Ki (Carbonic anhydrase 12): 0.0055 µM
Ki (Carbonic anhydrase 1): 6.83 µM

CCOc1ccc(S(=O)(=O)NCCO)cc1-c1nnc2c(n1)c(C)nn2C
IC50 [1]: > 50 µM
IC50 [2]: > 50 µM
Ki (Carbonic anhydrase 2): > 10 µM
Ki (Carbonic anhydrase 9): 0.0381 µM
Ki (Carbonic anhydrase 12): 0.0073 µM
Ki (Carbonic anhydrase 1): > 10 µM
IC50 (MCF7): > 25 µM
IC50 (K562): > 25 µM

CCOc1ccc(S(=O)(=O)N2CCCCC2)cc1-c1nnc2c(n1)c(C)nn2C
IC50 [1]: > 25 µM
IC50 [2]: > 25 µM
Ki (Carbonic anhydrase 2): > 10 µM
Ki (Carbonic anhydrase 9): 0.0281 µM
Ki (Carbonic anhydrase 12): 0.579 µM
Ki (Carbonic anhydrase 1): > 10 µM
IC50 (MCF7): > 25 µM
IC50 (K562): > 25 µM
